# Literature values, collected in patent publication US4868155A, “Dipeptidyl 4-0-,6-0-acyl-2-amino-2-deoxy-D-glucose compositions and methods of use in AIDS-immunocompromised human hosts” (Merck & Co., Inc., priority 1987, dated 1989).
# Read-outs that look alike come from different tables or passages of the source.
# How the values were obtained:
# [1] = test system: AIDS related virus; conditions: for clinical benefit (symptoms, immune function) in AIDS / ARC patients: clinical trials; for virus replication in humans: patients
# [2] = test system: reverse transcriptase in several retroviruses; conditions: in vitro
# [3] = test system: HIV
# [4] = test system: Mycobacterium avium intracellulare; conditions: AIDS patients infected with Mycobacterium avium intracellulare
# [5] = in vivo
compound,measurement,setting,value
CC(C)(N1CC1C#N)N1CC1C(N)=O (stereo not shown) [Azimexon],"clinical benefit (symptoms, immune function) in AIDS / ARC patients",[1],improvements in symptoms and immune function in patients with ARC but not AIDS
same,toxicity / side effects,patients,mild hemolysis
CC(=O)Nc1ccc(C(=O)O)cc1.CC(=O)Nc1ccc(C(=O)O)cc1.CC(=O)Nc1ccc(C(=O)O)cc1.CC(O)CN(C)C.CC(O)CN(C)C.CC(O)CN(C)C.O=c1[nH]cnc2c1ncn2[C@@H]1O[C@H](CO)[C@@H](O)[C@H]1O [Inosine granobex],"clinical benefit (symptoms, immune function) in AIDS / ARC patients",[1],improve immune function in ARC patients
Cc1ccc(C(=O)Nc2ccc(S(=O)(=O)O)c3cc(S(=O)(=O)O)cc(S(=O)(=O)O)c23)cc1NC(=O)c1cccc(NC(=O)Nc2cccc(C(=O)Nc3cc(C(=O)Nc4ccc(S(=O)(=O)O)c5cc(S(=O)(=O)O)cc(S(=O)(=O)O)c45)ccc3C)c2)c1 [Suramin],"clinical benefit (symptoms, immune function) in AIDS / ARC patients",[1],little or no evidence of clinical improvement or immunologic recovery
"NC(=O)c1ncn([C@@H]2O[C@H](CO)[C@@H](O)[C@H]2O)n1 [Ribavirin, 1 8 D ribofuranosyl-1,2,4-triazole-3-carboxamide]","clinical benefit (symptoms, immune function) in AIDS / ARC patients",[1],improved immune function
same,virus replication in humans,[1],inhibited viral replication
same,safety profile,"human, in vivo",acceptable
"O=C(O)P(=O)(O)O [Foscarnet, trisodium phosphonoformate]",toxicity / side effects,"human, in vivo",serious side effects
"CC(C)(S)[C@@H](N)C(=O)O [D Penicillamine, 3-mercapto D valine]",virus replication in humans,[1],Inhibits HIV reproduction in humans
same,T cell levels,13 AIDS patients with perpetually swollen glands,temporarily depressed T cell levels
ammonium 21 tungsto 9 antimoniate [HPA-23],inhibition of reverse transcriptase in several retroviruses,[2],Inhibits reverse transcriptase in several retroviruses in vitro
same,"clinical benefit (symptoms, immune function) in AIDS / ARC patients",[1],no therapeutic benefit
same,growth of HIV,[3],some tendency to check the growth of HIV
"CO[C@H]1/C=C/O[C@@]2(C)Oc3c(C)c(O)c4c(c3C2=O)C2=NC3(CCN(CC(C)C)CC3)NC2=C(NC(=O)/C(C)=C\C=C\[C@H](C)[C@H](O)[C@@H](C)[C@@H](O)[C@@H](C)[C@H](OC(C)=O)[C@@H]1C)C4=O [Ansamycin, rifabutin]",efficacy against opportunistic infection,[4],some efficacy
α-Interferon,tumor regression in AIDS-related Kaposi's sarcoma,[1]; AIDS-related Kaposi's sarcoma cases,induced tumor regression in some AIDS-related Kaposi's sarcoma cases
"Cc1cn([C@H]2C[C@H](N=[N+]=[N-])[C@@H](CO)O2)c(=O)[nH]c1=O [Azidothymidine, 3' azido 3'-deoxythymidine]",oral absorption,[5],Well absorbed orally
